Source: patent US20200080157A1, “PROGNOSIS AND TREATMENT OF RELAPSING LEUKEMIA” (McMaster University, priority 2018, published 2020)

What was measured:
human AML cells = experiment: Flow cytometry of CD34/CD38 and LRC marker proteins (DRD2, SLC2A2, FASLG, FUT3) in human AML cells from xenograft BM; type: in vivo, human AML cells in mice
Procedure: Immunophenotyping for human hematopoietic cell surface markers was carried out using the following antibodies: V450-conjugated anti-CD45 (1:100; 2D1), APC-conjugated anti-CD33 (1:300; WM-33), PE-conjugated anti-CD34 (1:200; 581), FITC- or PE-conjugated anti-CD38 (1:100 or 1:500; HB7), FITC-conjugated anti-CD19 (1:100; HIB19), and APC-conjugated anti-CD3 (1:100; UCHT1; all from BD). In order to evaluate candidates from the LRC gene signature at the protein level, gene targets were identified with available commercial antibodies that had been validated for flow cytometry. Directly conjugated antibodies were used to detect human SLC2A2 (Alexa fluor 488-conjugated; 1:100; 199017; Novus Biologicals) and FASLG (FITC-conjugated; 1:100; SB93A; Thermo Fisher). Additionally, mouse anti-human primary antibodies that recognize human DRD2 (1:100; B-10; Santa Cruz) or FUT3 (1:100, F3, Thermo Fisher) were used, followed by incubation with an Alexa fluor 647- or 555-conjugated donkey anti-mouse secondary antibody ([…]; Thermo Fisher). In these cases of indirect staining, cells were first blocked with donkey serum (Jackson ImmunoResearch Laboratories) plus human FC block (eBioscience). […] When appropriate, fluorescence minus one and secondary antibody controls were used to optimize gating strategies for target cell populations. […]

[1] = system: human AML leukemia initiating cells (LSCs); experiment: Serial transplantation (limiting dilution) leukemia-initiating cell / LSC assay in secondary recipient mice; type: in vivo, human AML cells in NOD/SCID or NSG mice
From the text: The threshold for engraftment detection was set at ≥0.1% human chimerism.

[2] = system: human AML cells (CD45+CD33+); experiment: Leukemic chimerism and growth rate in BM of AML-xenografted mice (FACS, serial BM aspirates); conditions: for Leukemic chimerism levels following DRD2 antagonist therapy: mean ± SEM
human AML progenitors = experiment: CFU (methylcellulose) progenitor assay of human AML cells purified from treated xenograft BM
[3] = Treatment-related mortality on AraC dose intensification in AML-xenografted mice; type: in vivo, mouse; conditions: AraC 100 mg/kg, 5 consecutive days
From the text: This more aggressive regime produced unacceptable treatment-related mortality rates of 60%, which was not balanced by any therapeutic benefit in the few mice that survived.

[4] = system: healthy human hematopoietic cells (CD45+); experiment: Healthy human hematopoietic chimerism and growth rate in xenografted mice; conditions: healthy human grafts in mice

In the case of CSc1ccc2c(c1)N(CCC1CCCCN1C)c1ccccc1S2 (stereo not shown) [DRD2 antagonist, thioridazine], the “DRD2 protein expression in human leukemic cells from xenograft BM” value (human AML cells; DRD2 antagonist with AraC, LRC stage) is reported as “loss of DRD2 protein expression”, the “LIC content of therapy-naïve AML” value ([1]; DRD2 antagonist single agent, AML #5, serial transplantation) is reported as “did not impact” and the “LIC activity of AraC-exposed LRCs” value ([1]; DRD2 antagonist together with AraC, AML #5, serial transplantation 9 days post-AraC) is reported as “complete loss of LIC activity”. The “disease regeneration potential (secondary LIC assays and progenitor assays)” value ([1]; DRD2 antagonist with AraC, three additional AML patient samples) was “reproducibly blocked”, the “time to overt relapse” value ([2]; AML #3 xenografts, AraC plus DRD2 antagonist vs AraC alone, relapse set at 20% leukemic chimerism, estimated from growth rates) was “nearly doubled” and the “Leukemic chimerism levels following DRD2 antagonist therapy” value ([2]; AML #5, LRCs (in combination with AraC)) was 1.4 ± 0.3. The “Leukemic chimerism levels following DRD2 antagonist therapy” value ([2]; AML #5, Therapy-naive (single agent, no AraC)) was 12.4 ± 2.2, the “Leukemic chimerism levels following DRD2 antagonist therapy” value ([2]; AML #10, LRCs (in combination with AraC)) was 16.9 ± 8.7 and the “Leukemic chimerism levels following DRD2 antagonist therapy” value ([2]; AML #11, LRCs (in combination with AraC)) was 1.4 ± 1.4. For the same compound, the “leukemic growth rates after AraC” value ([2]; AML Patient #3 xenografts, DRD2 antagonist plus AraC vs AraC alone) was “successfully disrupted”, the “recipients achieving disease-free status” value ([2]; AML patient #13 xenografts, DRD2 antagonist added to AraC) was 100% and the “overall cytoreductive activity of AraC (leukemic chimerism)” value ([2]; in vivo delivery of DRD2 antagonist with AraC) was “did not improve”. For the same compound, the “effect on progenitors of regenerating LRCs (CFU)” value (human AML progenitors; DRD2 antagonist in combination with AraC, 9 days after last AraC dose) was “profound effects” and the “effect on AML progenitors arising from therapy-naive LSCs (CFU)” value (human AML progenitors; DRD2 antagonist single agent, 21-day regimen, AML xenografts) was “moderately affected”.

For Nc1ccn([C@@H]2O[C@H](CO)[C@@H](O)[C@@H]2O)c(=O)n1 [AraC, Cytarabine], the treatment-related mortality rate [3] was 60%, the “frequencies of primitive CD34+ and CD34+CD38− cells within residual AML populations” value (human AML cells; AraC 5 consecutive days, xenograft BM 24-72 hr after final dose) was “strongly reduced” and the “functional LSCs (serial LIC transplantation)” value ([1]; AML xenografts, 48 hr after final AraC dose) was “suppressed”. For the same compound, the “#Engrafted mice” value ([1]; AML#2, +AraC, cell dose 1 × 10^6, cells transplanted 48 hr after final AraC dose) was 0/4, the “#Engrafted mice” value ([1]; AML#2, +AraC, cell dose 2 × 10^5, cells transplanted 48 hr after final AraC dose) was 0/4 and the “#Engrafted mice” value ([1]; AML#3, +AraC, cell dose 2 × 10^5, cells transplanted 48 hr after final AraC dose) was 1/4. The “#Engrafted mice” value ([1]; AML#3, +AraC, cell dose 3 × 10^4, cells transplanted 48 hr after final AraC dose) was 0/3, the “recipient mice with persisting residual disease” value ([2]; AML patient #13 xenografts, AraC alone, 9 days after final AraC dose) was 50% and the “leukemic growth after AraC vs vehicle-treated controls” value ([2]; AML xenografts, kinetic modeling of serial BM aspirates) was “accelerated leukemic growth”. For the same compound, the “re-growth rates of healthy human hematopoiesis after AraC cytoreduction” value [4] was “rates matching those of vehicle-treated controls” and the “functional progenitors in residual leukemic populations (CFU)” value (human AML progenitors; AML xenografts, 48 hr after AraC withdrawal) was “depleted”.
